In PubChem BioAssay (NCI):
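In this assay, cells in 96-well plates receive the compound at five concentrations for 48 hours. Endpoints are linearly interpolated between the surrounding concentrations. At the GI50, growth is halved. TGI is the concentration that stops growth completely.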

Legend:
Test in all cases: NCI-60 cell line screen, 48 h
HCT-15 colon = system: HCT-15 colon
LOX IMVI melanoma = system: LOX IMVI melanoma
OVCAR-8 ovarian = system: OVCAR-8 ovarian
SK-MEL-28 melanoma = system: SK-MEL-28 melanoma
CAKI-1 renal = system: CAKI-1 renal
OVCAR-4 ovarian = system: OVCAR-4 ovarian
SK-MEL-2 melanoma = system: SK-MEL-2 melanoma
NCI-H23 lung = system: NCI-H23 lung
NCI-H226 lung = system: NCI-H226 lung
SW-620 colon = system: SW-620 colon

SMILES	GI50 (HCT-15 colon) [µM]	TGI (HCT-15 colon) [µM]	GI50 (LOX IMVI melanoma) [µM]	TGI (LOX IMVI melanoma) [µM]	GI50 (OVCAR-8 ovarian) [µM]	TGI (OVCAR-8 ovarian) [µM]	GI50 (SK-MEL-28 melanoma) [µM]	TGI (SK-MEL-28 melanoma) [µM]	GI50 (CAKI-1 renal) [µM]	TGI (CAKI-1 renal) [µM]	GI50 (OVCAR-4 ovarian) [µM]	TGI (OVCAR-4 ovarian) [µM]	GI50 (SK-MEL-2 melanoma) [µM]	TGI (SK-MEL-2 melanoma) [µM]	GI50 (NCI-H23 lung) [µM]	TGI (NCI-H23 lung) [µM]	GI50 (NCI-H226 lung) [µM]	TGI (NCI-H226 lung) [µM]	TGI (SW-620 colon) [µM]	GI50 (SW-620 colon) [µM]
O=[N+]([O-])c1ccc(C=C2C(Cl)=C(Cl)C(Cl)=C2Cl)cc1	3.17	> 100	2	4.3	2.16	5.28	3.81	74.4	1.11	3.4	2.42	6.1	2.77	8.89	2.05	5.16	4.31	23		
Cc1cc(=O)[nH]c(NN2C(Cl)C(=O)C2c2cccc(O)c2)n1 (stereo not drawn)		> 100		> 100		> 100		> 100				> 100		> 100		> 100			> 100	
COc1ccc(C2CC(c3cccc(Nc4ccncc4)c3)=NN2c2cc(Cl)cc(Cl)c2)cc1 (stereo not drawn)	1.7	3.26	1.62	2.97			1.74	3.36	1.62	3.1	1.67	3.12	2.36	5.02	1.79	3.44	10.7	30.7	3.26	1.71
Cc1ccc2c(n1)C(=O)c1[nH]c3ccccc3c1C2=O			1.01	24.8	2.61	> 100	3.87	> 100	2.37	> 100	1.13	2.35	3.36	> 100	0.687	3.79	1.36	3.65	> 100	2.97
c1ccc(N=C2SC(=NC3CCCCC3)N(C3CCCCC3)C2=Nc2ccccc2)cc1		> 100				> 100		> 100		> 100				> 100		> 100		> 100		
CC(=O)OC1CCC2(C)C3CCC4(C)C(c5ccc(=O)oc5)CC5OC54C3CCC2(O)C1 (stereo not drawn)		14.6		16.5		7.73		21.7		2.23		5.61		13		2.98		25.1	4.04	
Cc1nc(N)sc1-c1ccnc(Nc2ccc(N3CCOCC3)cc2)n1	0.991	> 100	0.907	> 100	2.78	> 100	4.22	> 100	0.517	3.05	> 21.7	> 100	5.16	59.3	1.6	> 100			24.9	1.41
CCC[CH2][Ge]([CH2]CCC)([CH2]CCC)[O]C(=O)CC(=O)c1ccccc1	0.316	10.4	0.313	1.72	1.65	18.3	4.48	19.1	6.37	20.6	2.49	21.3	2.22	17.9	0.28	14.8	3.23	17.2	12.6	0.825
O=C(OC(=O)n1ccc2ccccc21)n1ccc2ccccc21		> 100		> 100		> 100		> 100		> 100		> 100		> 100		> 100		> 100	> 100	
O=NN(CCCl)C(=O)NC1CCSc2ccccc21 (stereo not drawn)		> 100		> 100		> 100		> 94.1		> 100		> 100		> 100		> 100		> 100	> 100	
COc1ccccc1C1C(C(=O)O)=C(CO)Oc2cc3c(cc21)OCO3 (stereo not drawn)		> 100		> 100		> 100		> 100		> 100				> 100		> 100		> 100	> 100	
NCCCNc1nc2ccccc2c2c(=O)c3cc(OC(F)(F)F)ccc3sc12					2.01	4.77	1.8	3.24	1.58	2.93			1.93	3.72	1.62	3.09				
CC1CC=CC(O)C1 (stereo not drawn)		> 100		> 100		> 100		> 100				> 100		> 100		> 100		> 100	> 100	
CC(=O)Oc1cccc2c(/C=N/NC(N)=S)ncc(C)c12		24.1		8.98		> 34.9		> 48.4		15.6		38.6		25.3		13.4		12.8	> 49.7	
NC(Cc1cccc([N+](=O)[O-])c1)C(=O)O (stereo not drawn)		> 100		> 100		> 100		> 100		> 100		> 100		> 100		> 100		> 100	> 100	
NC(CCCCP(=O)(O)O)C(=O)O (stereo not drawn)		> 100		> 100		> 100		> 100		> 100		> 100		> 100		> 100			> 100	
NNC(N)Nc1ccccc1 (stereo not drawn)		> 100				> 100		> 100		> 100		> 100		> 100		> 100		> 100	> 100	
